Data on 1 compound can be found in patent US6825193B2, “Citric acid salt of a therapeutic compound and pharmaceutical compositions thereof” (Pfizer Inc., priority 2001, dated 2004).

Structures are written as SMILES. “Also recorded” adds a separate entry of the source. Where a name gives a salt, the structure may show the parent alone.

Holding throughout (assay type): physicochemical
Data set [1] is described as follows: Hygroscopicity on exposure to 90% relative humidity in a moisture chamber.
A short description of data set [2]: Solid state stability (light, elevated temperature, high humidity challenges). The conditions noted are these: elevated temperatures.
A short description of data set [3]: Compatibility with drug product formulation excipients.
Data set [4] is described as follows: Aqueous solubility and native pH in aqueous solution.

In the case of `CN1CCN(c2ccccc2/C=C2\SCCN(c3ccc(Cl)c(Cl)c3)C2=O)CC1` [citrate salt, 4-(3,4-dichlorophenyl)-2-[2-(4-methylpiperazin-1-yl)-benzylidene]-thiomorpholin-3-one], the “hygroscopicity (in words)” value in data set [1] is listed as “only slightly hygroscopic”. Further, the figures for the hygroscopicity entry in data set [1] (at 90% relative humidity) and in data set [1] (on exposure to 90% relative humidity in a moisture chamber) were “approximately 1.27%” and “approximately 1.27 % wt/wt”, respectively. In data set [2], the “solid state stability (in words)” value was “excellent solid state stability; also recorded: superior to previously known salts”. In data set [3], the “inertness / compatibility towards common formulation excipients (in words)” value is on record as “relative inertness towards common excipients; also recorded: superior to previously known salts”. Also, in data set [4], the “aqueous solubility (in words)” value was “high aqueous solubility”. Moreover, the “native pH in aqueous solution” value in data set [4] (aqueous solution at solubility 1.3 mg/ml) came out at 3.37. The compound further had a solubility in data set [4] (water, native pH 3.37) of 1300 µg/mL.

As usually defined, the solubility is the concentration that dissolves in the medium under given conditions.
